Measured values from patent US12630546B2, “RNF4 targeting compounds and uses thereof” (TECHNION RESEARCH & DEVELOPMENT FOUNDATION LIMITED, priority 2021, dated 2026).
“Also recorded” adds a separate entry of the source.

What was measured:
[1] = test system: human U2OS sarcoma cells; experiment: Colony formation of osteosarcoma cells; assay type: cell-based; settings: added at cell seeding, colonies visualized 9 d after seeding
[2] = test system: mouse melanoma B16F10 cancer cells; experiment: Cell viability (MTT) of B16F10 melanoma cells; assay type: cell-based; settings: three days treatment
Method: (§1) Cell viability was assessed using MTT (Sigma-Aldrich) and ATP-lite (Perkin Elmer) assays according to the manufacture instructions. In assays evaluating resistance to PLX4032, PLX4032-treated cells were cultured for six days before analysis. Viability was measured using cells were performed in 96-well plates and cells incubated for 24 h at 37° C. Next, cells were incubated in MTT solution (Sigma-Aldrich) and processed according to the manufacturer instructions and analyzed using Stat Fax 2100 ELISA reader.

[3] = test system: U2OS human osteosarcoma cells; experiment: Cell viability (MTT) of osteosarcoma cells; assay type: cell-based; settings: concentrations similar to A375R
Method: as §1

[4] = test system: human squamous skin cancer cells (SCC1); experiment: Colony formation of squamous cell carcinoma cells; assay type: cell-based
Method: Colony formation assay: Cells were suspended in DMEM or RPMI medium and seeded at a density of 1000 cells/well. Plates were maintained at 37° C. for six days, fixed overnight with 4% paraformaldehyde (PFA), stained with 0.05% crystal violet.

[5] = test system: human Myeloma U266 cells; experiment: Cell viability (MTT) of multiple myeloma cells; assay type: cell-based; settings: concentrations similar to A375R
Method: as §1

[6] = test system: B16F10 murine melanoma cells; experiment: Colony formation of B16F10 melanoma cells; assay type: cell-based, mouse; settings: nine days
[7] = target: T1, RNF4 (Homo sapiens, UniProt P78317); experiment: RNF4 protein level by western blot after R4VP treatment; assay type: cell-based; parameters: RNF4 degradation in the presence of proteasome inhibitor MG132: dose or concentration left out as unconfirmed
T1 construct: endogenous in cells; host or cells: A375 / A375R human melanoma cells
T1 sequence (P78317 1-190): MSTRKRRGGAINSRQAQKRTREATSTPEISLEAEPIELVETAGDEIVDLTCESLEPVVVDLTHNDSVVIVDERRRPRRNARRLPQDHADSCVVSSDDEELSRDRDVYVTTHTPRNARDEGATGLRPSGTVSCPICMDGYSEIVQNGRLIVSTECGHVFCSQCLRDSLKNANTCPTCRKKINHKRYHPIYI
Method: Protein stability was determined in steady state and dynamic CHX chase experiments as described (Trausch-Azar et al. 2015). Proteins resolved over SDS-PAGE, using the indicated antibodies, and visualized using chemiluminescence (Image-Quan LAS4000). Where indicated cells were treated for the indicated times and concentrations with R4VP or related compounds.

[8] = test system: A375R melanoma cells; experiment: Cell viability (MTT) of Vemurafenib-resistant melanoma cells; assay type: cell-based, human; settings: six days, in presence of PLX4032
Method: as §1

[9] = test system: A375R melanoma cells; experiment: Cell death by FACS analysis (sub-G1); assay type: cell-based, human; settings: 3 h exposure, 20 uM
[10] = test system: human A375R melanoma; experiment: Colony formation of PLX-resistant melanoma cells; assay type: cell-based; settings: added at cell seeding, colonies visualized 8 d after seeding

Q: For `Cc1ncsc1-c1ccc(CNC(=O)[C@H]2C[C@@H](O)CN2C(=O)[C@H](NC(=O)CCC(=O)NCCCCOc2ccc(Oc3ccc(N(Cc4ccccc4)C(=O)CCl)cc3)cc2)C(C)(C)C)cc1` [R4VP, N1-(4-(4-(4-(N-benzyl-2-chloroacetamido)phenoxy)phenoxy)butyl)-N4-((R)-1-((2R,4R)-4-hydroxy-2-((4-(4-methylthiazol-5-yl)benzyl)carbamoyl)pyrrolidin-1-yl)-3,3-dimethyl-1-oxobutan-2-yl)succinamide], which “effect on colony formation of U2OS cells” value [1] is on record?
A: inhibited colony formation of melanoma and osteosarcoma cells in a dose dependent manner; also recorded: inhibits colony formation of human U2OS sarcoma cells

Q: What about the “effect on proliferation/viability of B16F10 cells” value [2] of the same molecule?
A: inhibits proliferation and colony formation

Q: What about the “effect on proliferation/viability of B16F10 cells” value ([2]; listed as RNF4-VHL-PROTAC) of the same molecule?
A: inhibits cell proliferation and colony formation

Q: What about the “effect on proliferation of U2OS cells” value [3] of the same molecule?
A: growth inhibitory effects were also observed; also recorded: inhibits proliferation of U2OS human osteosarcoma cells in a dose dependent manner

Q: What about the “effect on colony formation of SCC1 cells” value ([4]; 1, 3 and 5 μM) of the same molecule?
A: inhibiting colony formation

Q: And the IC50 ([4]; Homo sapiens, squamous cell carcinoma cell line, printed HCC1)?
A: < 1000 nM

Q: What about the “effect on proliferation of U266 cells” value [5] of the same molecule?
A: growth inhibitory effects were also observed; also recorded: inhibits proliferation of human Myeloma U266cells

Q: What about the “effect on colony formation of B16F10 cells” value [6] of the same molecule?
A: inhibits proliferation and colony formation

Q: And the “effect on colony formation of B16F10 cells” value ([6]; listed as RNF4-VHL-PROTAC)?
A: inhibits cell proliferation and colony formation

Q: What about the “RNF4 degradation in the presence of proteasome inhibitor MG132” value ([7]; A375R cells, MG132 as printed) of the same molecule?
A: can be inhibited by the proteasome inhibitor MG132; also recorded: restored to levels similar to control treated cells

Q: And the “RNF4 protein level (exogenous HA-RNF4 or endogenous)” value ([7]; A375R cells, three hours treatment, western blot)?
A: reduced the level of exogenous or endogenous RNF4 protein; also recorded: induced degradation of RNF4

Q: And the “endogenous RNF4 level, dose dependence” value ([7]; A375 melanoma cells)?
A: reduces the level of endogenous RNF4 in A375 melanoma cells in a dose dependent manner

Q: And the “concentration inhibiting growth and proliferation” value ([8]; A375R)?
A: ≥ 10 µM

Q: And the “effect on growth and proliferation of A375R cells” value [8]?
A: inhibits A375R proliferation

Q: And the “cell death, accumulation of cells in sub-G1” value [9]?
A: extensive cell death

Q: And the “cell death, accumulation of cells in sub-G1” value ([9]; listed as RNF4-VHL-PROTAC)?
A: results in cell-death

Q: What about the “effect on colony formation of A375R cells” value [10] of the same molecule?
A: inhibited colony formation of melanoma and osteosarcoma cells in a dose dependent manner; also recorded: inhibits colony formation of human A375R melanoma
